Reference: paper PMC8393492, “Linking the Phytochemicals and the α-Glucosidase and α-Amylase Enzyme Inhibitory Effects of Nigella sativa Seed Extracts” (Foods, 2021)

Key:
intestinal α-glucosidase = intestinal α-glucosidase (Rattus norvegicus, UniProt P23739); test: In vitro intestinal α-glucosidase inhibitory assay (sucrose substrate, glucose release); assay type: biochemical; settings: for Inhibition Type: Lineweaver–Burk plots, inhibitor 50 µM (acarbose 5 µM); for Vmax: enzyme Vmax in presence of inhibitor 50 µM (acarbose 5 µM), control 14.1 ± 0.7
Chain of intestinal α-glucosidase (P23739 whole entry): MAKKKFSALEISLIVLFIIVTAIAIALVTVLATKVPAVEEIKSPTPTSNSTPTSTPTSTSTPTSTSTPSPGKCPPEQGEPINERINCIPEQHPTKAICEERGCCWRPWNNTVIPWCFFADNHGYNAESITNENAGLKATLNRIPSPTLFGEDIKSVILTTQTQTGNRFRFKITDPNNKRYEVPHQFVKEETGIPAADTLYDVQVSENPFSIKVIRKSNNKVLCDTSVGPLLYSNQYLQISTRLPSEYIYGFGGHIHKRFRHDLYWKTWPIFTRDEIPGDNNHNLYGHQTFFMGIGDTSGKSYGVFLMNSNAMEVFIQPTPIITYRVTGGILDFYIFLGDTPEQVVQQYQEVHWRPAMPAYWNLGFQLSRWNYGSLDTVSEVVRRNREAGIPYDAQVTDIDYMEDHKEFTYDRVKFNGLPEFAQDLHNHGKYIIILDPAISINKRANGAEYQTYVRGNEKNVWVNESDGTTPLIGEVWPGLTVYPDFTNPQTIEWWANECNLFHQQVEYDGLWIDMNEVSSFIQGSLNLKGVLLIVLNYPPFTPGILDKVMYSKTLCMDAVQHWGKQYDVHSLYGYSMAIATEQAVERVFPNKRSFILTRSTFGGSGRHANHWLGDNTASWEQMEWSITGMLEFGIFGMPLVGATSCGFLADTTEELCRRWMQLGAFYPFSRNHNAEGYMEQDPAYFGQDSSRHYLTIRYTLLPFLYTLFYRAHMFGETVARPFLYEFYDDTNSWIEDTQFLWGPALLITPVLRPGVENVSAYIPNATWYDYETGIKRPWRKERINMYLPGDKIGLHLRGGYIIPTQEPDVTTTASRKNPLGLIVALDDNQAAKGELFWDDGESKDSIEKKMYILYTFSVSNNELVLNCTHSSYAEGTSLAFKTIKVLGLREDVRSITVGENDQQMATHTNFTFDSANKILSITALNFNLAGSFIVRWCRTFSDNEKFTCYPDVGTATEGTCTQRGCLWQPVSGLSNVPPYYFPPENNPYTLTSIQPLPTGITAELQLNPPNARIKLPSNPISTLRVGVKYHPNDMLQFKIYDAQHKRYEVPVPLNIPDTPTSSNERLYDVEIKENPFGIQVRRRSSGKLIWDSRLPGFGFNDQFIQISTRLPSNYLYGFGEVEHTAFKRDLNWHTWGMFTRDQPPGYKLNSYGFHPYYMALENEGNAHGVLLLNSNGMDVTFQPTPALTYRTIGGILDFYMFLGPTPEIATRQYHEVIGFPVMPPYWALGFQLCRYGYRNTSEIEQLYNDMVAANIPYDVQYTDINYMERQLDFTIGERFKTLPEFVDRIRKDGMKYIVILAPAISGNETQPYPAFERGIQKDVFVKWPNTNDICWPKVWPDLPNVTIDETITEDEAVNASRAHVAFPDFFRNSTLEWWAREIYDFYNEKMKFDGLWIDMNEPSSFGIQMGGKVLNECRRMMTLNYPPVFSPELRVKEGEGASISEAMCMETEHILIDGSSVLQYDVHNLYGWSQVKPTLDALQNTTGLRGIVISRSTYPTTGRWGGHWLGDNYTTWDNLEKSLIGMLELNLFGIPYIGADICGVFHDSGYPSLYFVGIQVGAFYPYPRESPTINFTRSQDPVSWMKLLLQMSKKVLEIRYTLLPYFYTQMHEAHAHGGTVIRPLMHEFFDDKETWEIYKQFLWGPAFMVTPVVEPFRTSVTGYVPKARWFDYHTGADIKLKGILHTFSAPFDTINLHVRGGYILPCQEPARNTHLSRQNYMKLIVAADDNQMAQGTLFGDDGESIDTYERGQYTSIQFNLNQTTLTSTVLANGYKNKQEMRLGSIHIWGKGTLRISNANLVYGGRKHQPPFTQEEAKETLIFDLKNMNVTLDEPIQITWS
Protocol: The effect of the N. sativa seed extracts and fractions against intestinal α-glucosidase activity was quantified colorimetrically by monitoring the glucose release from sucrose degradation, according to the protocol described by Ouassou et al.. The assay mixtures contained 100 µL of sucrose (50 Mm), 1000 μL of phosphate- buffer (50 mM; pH = 7.5), and 100 μL of intestinal α-glucosidase enzyme solution (10 IU). […] Then, tubes were incubated at 37 °C in a water bath for 25 min. The mixture was heated at 100 °C for 5 min to stop the enzymatic reaction, and the release of glucose was estimated by the glucose oxidase method using a commercially available auto-kit. The absorbance was measured at 500 nm, and the inhibition percentage was calculated using the below formula:Inhibitory activity percentage = ((Acontrol 500 nm − ATest 500 nm)/Acontrol 500 nm) × 100(1)
The assays were conducted as described above. […] The experiments were repeated three times.

pancreatic α-amylase = molecular target: T1, pancreatic α-amylase (Sus scrofa, UniProt P00690); test: In vitro pancreatic α-amylase inhibitory assay (starch substrate, DNSA); settings: for Inhibition Type: Lineweaver–Burk plots, inhibitor 50 µM (acarbose 5 µM); for Vmax: enzyme Vmax in presence of inhibitor 50 µM (acarbose 5 µM), control 29.6 ± 0.8
T1 sequence (P00690 16-511): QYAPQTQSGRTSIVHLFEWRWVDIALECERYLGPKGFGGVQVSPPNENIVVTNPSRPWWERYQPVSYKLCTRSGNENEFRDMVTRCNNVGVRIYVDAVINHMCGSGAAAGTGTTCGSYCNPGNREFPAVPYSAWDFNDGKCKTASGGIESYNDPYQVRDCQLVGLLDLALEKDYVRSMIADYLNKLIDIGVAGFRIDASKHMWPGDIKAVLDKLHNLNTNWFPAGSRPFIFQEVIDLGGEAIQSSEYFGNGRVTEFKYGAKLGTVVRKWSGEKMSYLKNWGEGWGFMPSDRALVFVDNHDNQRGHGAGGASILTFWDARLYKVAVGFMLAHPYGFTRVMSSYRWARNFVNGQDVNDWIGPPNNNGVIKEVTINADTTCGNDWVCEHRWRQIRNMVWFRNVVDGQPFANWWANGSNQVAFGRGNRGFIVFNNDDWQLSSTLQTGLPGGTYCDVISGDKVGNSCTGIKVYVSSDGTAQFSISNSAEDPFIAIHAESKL
Protocol: The inhibition of pancreatic α-amylase activity by N. sativa seed extracts and fractions was studied according to the procedure described by Daoudi et al. [29]. […] The mixtures were pre-incubated at 37 °C for 10 min. Then, 200 μL of starch (1% (w/v)) dissolved in phosphate buffer was added to each tube and were incubated for 20 min at 37 °C. To stop the enzymatic reaction 600 μL of DNSA color reagent was added. Hereafter, the tubes were incubated for 8 min at 100 °C, before being put in an ice-cold-water bath for a few minutes. The mixture was diluted by adding 1 mL of distilled water and the absorbance was measured at 540 nm. Inhibition percentage was calculated using the formula bellows:Inhibitory activity percentage= ((AControl 540 nm − ATest 540 nm)/AControl 540 nm) × 100(2)
Lineweaver–Burk double reciprocal representation (plotting 1/velocity vs 1/substrate concentration) was used to assess inhibition mode, and kinetic parameters Km and Vmax were determined using the Michaelis-Menten equation.
Secondary plots were used to establish the inhibition constants Ki (slope of the Lineweaver–Burk double reciprocal representation vs inhibitor concentration and intercept of the Lineweaver–Burk double reciprocal representation vs inhibitor concentration).

[1] = extraction solvent; source not given; cited from earlier work

## CC1=CC(=O)C(C(C)C)=CC1=O [thymoquinone]
Intestinal α-glucosidase; under the evaluated concentration range (50 µM in kinetics), data not shown
  inhibition of intestinal α-glucosidase (in words): not active

## O=c1cc(-c2ccc(O)cc2)oc2cc(O)cc(O)c12 [Apigenin, apigenin]
Pancreatic α-amylase
  Inhibition Type: Competitive
  Vmax: 90.1 ± 0.7 µM/min
Pancreatic α-amylase; combined with acarbose, possible additive effect
  fractional inhibition concentration (FIC): 0.74

## CC(C)=O [Acetone]
[1]
  logP: −0.16

## C[C@H]1O[C@H](O[C@H]2[C@H](O)[C@@H](O)[C@@H](O[C@H]3[C@H](O)[C@@H](O)C(O)O[C@@H]3CO)O[C@@H]2CO)[C@H](O)[C@@H](O)[C@@H]1N[C@H]1C=C(CO)[C@@H](O)[C@H](O)[C@H]1O (stereo partly shown) [Acarbose, acarbose, reference compound]
Intestinal α-glucosidase
  Inhibition Type: Competitive
  Vmax: 23.9 ± 0.5 µM/min
Intestinal α-glucosidase; read-out: Inhibition of intestinal α-glucosidase activity
  inhibition at 50 µM: 89.2 ± 0.5%
Pancreatic α-amylase
  Inhibition Type: Competitive
  Vmax: 53.8 ± 1.1 µM/min
Pancreatic α-amylase; positive control at 5 µM (3.22 µg/mL)
  Inhibition of pancreatic α-amylase activity: 65.6 ± 4.1%

## O=C(O)c1cc(O)c(O)c(O)c1 [Gallic acid, gallic acid]
Intestinal α-glucosidase
  Inhibition Type: Noncompetitive
  Vmax: 14.7 ± 1.2 µM/min
Pancreatic α-amylase
  IC50: 27.8 ± 2.06 µM
  Inhibition Type: Competitive
  Vmax: 76.9 ± 1.4 µM/min

## Oc1cc(O)c2c(c1)O[C@@H](c1ccc(O)c(O)c1)[C@H](O)C2 [(−)-Catechin, (−)-catechin]
Intestinal α-glucosidase
  Inhibition Type: Noncompetitive
  Vmax: 13.1 ± 0.9 µM/min
Intestinal α-glucosidase; mixed with acarbose, FIC = IC50 in combination with acarbose/IC50 alone, synergistic effect
  fractional inhibition concentration (FIC): 0.16
